The results in this text go back to paper PMC11468213, “Ionic Liquid‐Mediated Transdermal Delivery of Thrombosis‐Detecting Nanosensors” (Advanced Healthcare Materials, 2022).

Data set [1] can be described thus: Dynamic light scattering size analysis of nanosensors in CAGE. It counts as physicochemical. From the text:
(§1) To assess the solubility, stability, and activity of our nanosensors in CAGE, we conjugated a thrombin substrate (–GGfPRSGGG–) to 40 kDa PEG nanoparticles at an 8:1 substrate:nanoparticle ratio. The substrates were flanked by 5‐carboxyfluorescein (5‐FAM) and a Förster resonance energy transfer quencher molecule (CPQ2) in close proximity, such that proteolytic cleavage would result in fluorescence signal (nanoparticle was denoted as TDN‐qFAM, Figure 1A). […] In addition, the colloidal stability of TDN‐qFAM was assessed by the absorption spectrum of TDN‐qFAM in the presence and absence of CAGE after 24 h of room temperature storage (Figure 1C). […]
(§2) The CAGE and TDNs coformulation was prepared by addition of 1 mL of CAGE onto 1 mg of conjugated PEG powder, followed by iterative short mixing and ultrasonication steps until a clear solution was observed. […] Size analysis was performed in dynamic light scattering (ZetaSizer), and absorbance spectra were obtained in Tecan Spectrophotometer. For in vitro cleavage assays, recombinant thrombin (10 × 10^−9 M working concentration) was mixed with TDN‐Q in CAGE (30%) solution (10 × 10^−6 M by peptide), and cleavage was monitored by fluorescence at 535 nm of dequenched 5‐carboxyfluorescein (5‐FAM). […]

In data set [2] the target is T1, endogenous thrombin (Mus musculus, UniProt P19221).
T1 construct: The cleavage study was carried out in mouse serum obtained from Sigma Aldrich; tissue Sigma Aldrich; host or cells: mouse serum
The data set is described as follows: Cleavage kinetics in mouse serum at different CAGE concentrations. The conditions noted are these: 37 °C, fluorescence. Type of data set: biochemical.

Data set [3] concerns the target recombinant thrombin (Homo sapiens, UniProt P00734). The data set is described as follows: Fluorescence dequenching cleavage assay with recombinant thrombin. It counts as biochemical. As to conditions: fluorescence at 535 nm, triplicate. From the text: To assess the solubility, stability, and activity of our nanosensors in CAGE, we conjugated a thrombin substrate (–GGfPRSGGG–) to 40 kDa PEG nanoparticles at an 8:1 substrate:nanoparticle ratio. The substrates were flanked by 5‐carboxyfluorescein (5‐FAM) and a Förster resonance energy transfer quencher molecule (CPQ2) in close proximity, such that proteolytic cleavage would result in fluorescence signal (nanoparticle was denoted as TDN‐qFAM, Figure 1A). […] In addition, the colloidal stability of TDN‐qFAM was assessed by the absorption spectrum of TDN‐qFAM in the presence and absence of CAGE after 24 h of room temperature storage (Figure 1C). […] We then investigated whether the presence of CAGE components influenced the stability of the peptide substrate and the activity of thrombin against TDN‐qFAM. […] However, upon stepwise dilution of CAGE with phosphate buffered saline (PBS), the functionality of TDN‐qFAM against thrombin cleavage was improved.
Figure 1 A) Chemical components of CAGE ionic liquid and schematic representation of TDN‐qFAM nanoparticles with thrombin substrate sequence. B) Dynamic light scattering and C) absorbance spectra of TDN‐qFAM in PBS and CAGE solutions. […]) Fluorescence dequenching experiment for enzyme cleavage kinetics in the presence (empty circles) and absence (full circles) of recombinant thrombin in the TDN‐qFAM/CAGE solution. […]

The nature of data set [4]: Colloidal stability by absorption spectrum after storage. Type of data set: physicochemical. The conditions noted are these: presence and absence of CAGE; 24 h room temperature storage; absorbance spectrum.
Source text: as §1, §2

A short description of data set [5]: Ex vivo skin penetration, Franz diffusion cell, porcine skin. Type of data set: in vitro ADME. The conditions noted are these: 300 µL, 37 °C, 24 h. How it is done: Porcine skin samples were placed on Franz diffusion cells, and the diffusion of TDN‐qFAM nanoparticles was tested with different concentrations of CAGE present in the formulation.
Figure 5 A) Confocal microscopy image of a paraffin‐embedded porcine skin section after 24 h of topical administration of TDN‐qFAM in 100% CAGE. Left: bright field; right: fluorescence image. Scale bar: 200 µm. B) Quantitative results of nanoparticles found in ex vivo porcine skin layers using Franz diffusion cell set‐up with different CAGE concentrations. (mean ± s.d., n = 3 independent skin slices).
The skin penetration studies were undertaken using porcine skin in Franz diffusion cells, as described previously in full.^[ [23] ^] Briefly, thawed porcine skin (CBSET, Lexington MA) or mouse skin removed from Swiss Webster strain was placed in a diffusion cell with the stratum corneum facing upwards. The acceptor component of the cell was filled with PBS and equipped with a magnetic stirrer bar. 300 µL was placed on top of the skin, ensuring full coverage. The diffusion cell was placed on a stirrer plate at 37 °C for 24 h, at which point the skin was removed and the surface washed gently with PBS. For quantitative analysis, the stratum corneum was removed by tape stripping (ten layers), the epidermis was separated from the dermis with a scalpel, and a 4 mm punch was used thrice to remove a third of the dermis (by area). The tissue was then placed into a 50% methanol/PBS mixture, and left to shake overnight at RT to extract the drug. 100 µL of the extracted fluid was then placed into a black Corning 96‐well plate and analyzed using a i3 SpectraMax plate reader, with excitation wavelength of 750 nm and an emission wavelength of 775 nm. For the confocal microscopy, the skin was affixed to a cryostat stage with fixing compound and 20 µm slices were taken using a cryostat (Leica CM1950, Leica, Germany). The slices of skin were placed on negatively charged slides (Fisher Scientific, Pittsburgh, PA, USA) and imaged using a confocal microscope (Upright Zeiss LSM 710 NLO) with a 10× air objective.

Data set [6] concerns acute pulmonary embolism mouse model. Description: Urinary reporter detection of thrombosis in thromboplastin-injected acute pulmonary embolism mouse model. Type of data set: in vivo, Swiss Webster mice. As to conditions: for ROC AUC: n = 5 per group. An excerpt: Next, we sought to assess whether transdermally delivered nanosensors could detect disease in this model. Thrombin substrate flanked by near‐IR dye, Cy7, was conjugated to PEG nanoparticles (TDN‐Cy7), were solvated in 30% CAGE and administered topically to Swiss Webster mice. The TDN‐Cy7 nanoparticles were designed such that cleavage of the thrombin substrate would liberate a renally clearable fragment with Cy7 that could enable quantification in the urine by fluorescence. Concomitant quantification of plasma‐borne TDN‐Cy7 was performed to normalize the urine signal in order to mitigate the mouse‐to‐mouse variation that may arise due to the heterogeneous skin conditions present across individual subjects. Thromboplastin was intravenously administered to mice at different time points after topical administration of CAGE/TDN solution on the dorsal skin. Urine collection was performed 30 min after thromboplastin injection, and fluorescence measurement was carried out to detect reporter peptides in the urine. […] These finding indicate that topical administration with CAGE achieves circulatory delivery of nanosensors that enable sustained, noninvasive monitoring of thromboembolism in vivo as opposed to bolus injection into the blood.
Figure 4 A) Urinary reporter concentrations relative to plasma TDN‐Cy7 concentrations for thromboplastin‐injected (Thrombosis) and healthy control mice at different time points after nanosensor administration (mean ± s.d., n = 5 mice per group; *P < 0.05 and **P < 0.01, two‐tailed Mann–Whitney's […]). […] C) Urinary reporter concentrations in healthy versus thrombosis mice 6 h after intravenous injection of TDN‐Cy7 (mean ± s.d., n = 5 mice per group; ns: not significant). D) ROC curve calculated from data at panel (C) (AUC = 0.60).
For urine detection of thrombosis, 10 µL of CAGE (30%) containing TDN‐Cy7 nanosensor (4nmoles by peptide) was administered onto previously shaved dorsal skin of Swiss Webster mice, which were subsequently returned to their cages. At different time points postadministration, thromboplastin (0.75 µL g^−1 bodyweight of 4 mg mL^−1 stock in PBS) was injected intravenously, and both urine and blood (retroorbital draw) were collected 30 min p.i. Plasma is collected similar to the pharmacokinetic study and both urine and plasma were stored at −80 °C. Cleaved peptide reporters in the urine was quantified with fluorescence of Cy7 (Excitation 750 nm, emission 790 nm). Plasma levels of TDN‐Cy7 were similarly quantified using fluorescence and used for normalizing the urine signals.

Data set [7] is described as follows: Ex vivo skin penetration, Franz diffusion cell, mouse skin. It counts as in vitro ADME, mouse (Swiss Webster). The conditions noted are these: 37 °C, 24 h, fluorescence, n = 3 skin samples. As to the method: Next, we validated the skin penetration of the nanosensors by coformulating unquenched, 5‐FAM labelled, thrombin substrate‐conjugated PEG nanoparticles (TDN‐FAM, Table S1, Supporting Information) and 30% CAGE solution. Ex vivo conditions were established by incubating TDN‐FAM/CAGE with mouse skin samples that were stabilized in a Franz diffusion cell set‐up.^[ [14], [15] ^] Three main layers of skin samples, namely stratum corneum, viable epidermis, and dermis, as well as the PBS solution underneath the skin (acceptor solution), were collected, and nanosensor concentration was quantified via fluorescence spectroscopy.
Figure 2 A) Quantification of TDN‐FAM extracted from different layers of mouse skin via fluorescence readout. SC: Stratum Corneum. […]
The skin penetration studies were undertaken using porcine skin in Franz diffusion cells, as described previously in full.^[ [23] ^] […] For quantitative analysis, the stratum corneum was removed by tape stripping (ten layers), the epidermis was separated from the dermis with a scalpel, and a 4 mm punch was used thrice to remove a third of the dermis (by area). […] 100 µL of the extracted fluid was then placed into a black Corning 96‐well plate and analyzed using a i3 SpectraMax plate reader, with excitation wavelength of 750 nm and an emission wavelength of 775 nm. […]

As for “5FAM-GGfPRSGGGK(CPQ2)-(EG)2-C-[8armPEG] [TDN‐qFAM, Quenched thrombosis detecting nanosensors: 5-FAM/CPQ2-flanked thrombin substrate peptide conjugated to 40 kDa 8-arm PEG nanoparticles]”, the “aggregation associated size increase (>100 nm), dynamic light scattering” value in data set [1] (30% CAGE solution vs PBS, ZetaSizer) is “did not exhibit any significant aggregation associated size increase”. Also, the “mean hydrodynamic size when dissolved in CAGE” value in data set [1] (CAGE vs PBS, dynamic light scattering) is given as “slight increase”. Besides, the “endogenous thrombin activity against nanosensor in mouse serum” value in data set [2] (30% CAGE, n = 3 measurements) is reported as “partially hindered”. In data set [2] (stepwise dilution of CAGE with PBS (5%, 1%, 0.1%, 0%), n = 3), the “functionality against thrombin cleavage in mouse serum on dilution of CAGE” value was “improved”. In addition, in data set [3] (30% CAGE alone, no thrombin), the “cleavage in the absence of recombinant enzyme” value was “no cleavage was observed”. The “cleavage (fluorescence dequenching) with recombinant thrombin” value in data set [3] (30% CAGE, thrombin 10 × 10^-9 M, nanosensor 10 × 10^-6 M by peptide) is “clear cleavage profile with gradual increase in fluorescence intensity”. For the same substance, the “absorption maximum at 495 nm (5-FAM) after storage” value in data set [4] is “virtually unchanged”. For the same substance, the “penetration into porcine skin” value in data set [5] (30% CAGE, fluorescence, n = 3 skin slices) is recorded as “slight increase in penetration”. For the same substance, the “amount transported into porcine skin” value in data set [5] (in PBS, acceptor PBS, fluorescence) is “negligible amount”. Besides, the “penetration through porcine skin” value in data set [5] (undiluted (100%) CAGE, fluorescence and confocal microscopy, n = 3 skin slices) is reported as “dramatically improved penetration”.
On to “Cy7-GGfPRSGGGK-(EG)2-C-[8armPEG] [TDN‐Cy7, Unquenched Cy7 conjugated thrombosis detecting nanosensors on 8-arm PEG]”, for which the “ROC AUC” value in data set [6] (6 h after intravenous injection) was 0.60; in data set [6] (topical 30% CAGE, 6 h after nanosensor administration) it was 1.00; in data set [6] (topical 30% CAGE, 12 h after nanosensor administration) it was 1.00; in data set [6] (topical 30% CAGE, 24 h after nanosensor administration), 0.96; in data set [6] (topical 30% CAGE, 48 h after nanosensor administration) it was 0.84; in data set [6] (topical 30% CAGE, 72 h after nanosensor administration), 0.72. The “amount of reporter in urine vs healthy background” value in data set [6] (intravenous injection 6 h before thromboplastin, n = 5) is listed as “not significantly different from healthy background”. Besides, in data set [6] (topical 30% CAGE, 4 nmoles by peptide, thromboplastin 6 h after administration, urine 30 min later, normalised to plasma, n = 5, P = 0.0079), the “urinary reporter signal, diseased vs healthy mice” value was “significantly increased”. The “diagnostic power of urinary reporter” value was “retained their diagnostic power” in data set [6] (topical 30% CAGE, thrombosis induced at 12 h, n = 5) and “retained their diagnostic power” in data set [6] (topical 30% CAGE, thrombosis induced at 24 hours, n = 5). Further, the “discrimination of diseased from healthy mice” value is listed as “could not discriminate diseased from healthy mice” in data set [6] (topical 30% CAGE, thrombosis induced at 48 hours, n = 5) and “could not discriminate diseased from healthy mice” in data set [6] (topical 30% CAGE, thrombosis induced at 72 hours, n = 5).
For the substance “5FAM-GGfPRSGGGK-(EG)2-C-[8armPEG] [TDN‐FAM, Unquenched 5-carboxyfluorescein conjugated thrombosis detecting nanosensors on 8-arm PEG]”, the “signal in dermis layer and acceptor solution” value in data set [7] (30% CAGE vs PBS, 300 µL, acceptor PBS) is given as “markedly increased signal”. The “recovery from dermis and acceptor layers” value in data set [7] (50% CAGE vs 30% CAGE) is “even higher recovery”.
